Paper PMC10222464, “Pharmacokinetic Study and Metabolite Identification of CAM106 in Rats by Validated UHPLC-MS/MS” (Pharmaceuticals, 2023)
“Also recorded” adds a separate entry of the source. Like-named read-outs stand apart in the source and are kept apart here.

Legend:
influenza virus B [1] = conditions: cited from earlier work
[2] = in vivo
rats = assay: Observation of toxicity / adverse reactions in rats after dosing; format: in vivo, Sprague Dawley (SD) rats
influenza virus B [3] = assay: Anti-influenza activity (IC50) against influenza virus B; format: cell-based; conditions: CAM106 versus rupestonic acid
H3N2 = tested on: H3N2; set-up: method as in PMID 22625417; conditions: read-out: IC50 for H3N2 virus; cited from earlier work
[4] = Metabolite identification in rat plasma, urine and feces by high-resolution mass spectrometry; conditions: √ found, × not found
Kun Ming mice = tested on: Kun Ming mice; set-up: method as in earlier work; conditions: 25 mg/kg; cited from earlier work
[5] = Pharmacokinetic study in rats after oral and intravenous administration (UHPLC-MS/MS, non-compartment analysis); format: in vivo, Sprague Dawley (SD) rats; conditions: for MRT inf: read-out: MRT0–inf; for MRT last: read-out: MRT0–t
Procedure: By using the UHPLC–MS/MS method, we successfully performed accurate quantification of CAM106 in rat plasma, and a non-compartment analysis was used to characterize the pharmacokinetic profiles of CAM106. […] After intravenous administration, T1/2 and Vd were 1.34 ± 0.64 h and 16624.89 ± 8171.11 mL/kg, respectively. […] The mean retention times after oral and intravenous administration were 3.42 ± 0.73 h and 0.63 ± 0.17 h, respectively.
All twelve male Sprague Dawley (SD) rats (weight 200 ± 20 g) were purchased from Xinjiang Medical University (Xinjiang, China). […] For the pharmacokinetic study, twelve rats were randomized into two groups (n = 6). The rats were fasted overnight before the experiment but had free access to water. […] For the oral administration group, CAM106 was intragastrically administered to the rats at a dose of 180 mg/kg. Approximately 0.2 mL of blood was drawn from the ophthalmic veins at 0, 0.25, 0.5, 0.75, 1, 1.5, 2, 4, and 10 h. For intravenous administration, CAM106 was injected into the tail at a dose of 18 mg/kg. About 0.2 mL of blood (from the ophthalmic veins) was drawn at 0, 0.25, 0.5, 0.75, 1, 1.5, 2, 4, and 6 h. After that, 1.5 mL polyethylene tubes containing EDTA were used to collect the plasma. The blood samples were centrifuged at 19,800× g for 7 min after which the supernatant was collected and stored at −80 °C for further analysis.
A 10 µL volume of methanol was added to 100 µL of each plasma sample and vortexed for 3 s (3000 rpm). Then, the mixtures were vortexed for three seconds while receiving 10 µL of internal standard (3000 rpm). A volume of 350 µL acetonitrile was added to 100 µL of each plasma sample. The mixtures were vortexed for 1 min and centrifuged for 7 min at 19800 g. A 100 µL aliquot of the supernatant was stored and 5 µL was subjected to UHPLC–MS/MS analysis.
For the pharmacokinetic study, the chromatographic separation was carried out on an Acquity UHPLC BEH C18 column (2.1 × 75 mm, 1.7 µm) with a filter. The column oven was set at 35 °C. The mobile phase aqueous solution (A, containing 0.1% formic acid) and acetonitrile (B) worked within 0–3.5 min with 60% B. The injection volume was set at 5 µL, with a flow rate of 0.2 mL/min. By using the parallel reaction monitoring (PRM) mode, the CAM106 and internal standard were found. The following adjustments were made to the electrospray ionization (ESI) source parameters: high collision dissociation cell (HCD) energy, 27 eV (for CAM106) and 42 eV (for the IS); capillary temperature, 320 °C; S-lens RF level, 55 V; automatic gain control (AGC) target, 1e^6; maximum IT, 100 ms; spray voltage, 3.2 kV.

Water solubility = format: physicochemical
[6] = Stability of CAM106 QC samples (rat plasma, stock solution) under different conditions; format: physicochemical; conditions: for Accuracy, autosampler stability 0 h / Accuracy, autosampler stability 4 h / Accuracy, autosampler stability 8 h / Accuracy, autosampler stability 12 h: autosampler 10 °C; for Accuracy, room temperature: room temperature 12 h; for Accuracy, stock solution 15 days: stock solution 15 days at −20 °C; for Accuracy, thaw: three freeze–thaw cycles; for Accuracy, long-term stability 1 day / Accuracy, long-term stability 7 days: −80 °C
Procedure: Three quality control (QC) concentrations of CAM106 were used for stability testing under five conditions: in the autosampler for 0, 4, 8, and 12 h; long-term stability at −80 °C for 1 and 7 days; stock solution for 15 days at −20 °C; at room temperature for 12 h; and three freeze–thaw cycles.
The stability tests were conducted with rat plasma containing CAM106 through the analysis of 3 replicates at 10.64, 106.38, and 638.30 ng/mL. This typically comprises short-term stability (room temperature), long-term stability (−80 °C), post-preparation stability (autosampler, 10 °C), and freeze–thaw cycle stability (room temper and −80 °C).

H1N1 = tested on: H1N1; set-up: method as in PMID 22625417; conditions: read-out: IC50 for H1N1 virus; cited from earlier work
[7] = IV 18.0 mg/kg, n = 6, mean ± SD
[8] = PO 180.0 mg/kg, n = 6, mean ± SD
[9] = male, Sprague Dawley, rat, plasma, IV 18.0 mg/kg, n = 6, mean ± SD
[10] = male, Sprague Dawley, rat, plasma, PO 180.0 mg/kg, n = 6, mean ± SD

For `C=C(C(=O)O)[C@H]1CC[C@H](C)[C@@H]2CC(=O)C(C)=C2C1` [rupestonic acid, reference compound], the IC50 (influenza virus B [1]; read-out: IC50 for virus B) is given as 116000 nM.

In the case of `C=C(C(=O)NCC1=CC(c2ccc(F)cc2)NO1)C1CCC(C)C2CC(=O)C(C)=C2C1` (stereo not drawn) [M8], the “Detected in rat feces (F)” value [2] is reported as “√” and the “Detected in rat urine (U)” value [2] is reported as “×”.

With `C=C(C(N)=O)C1CCC(C)C2CC(=O)C(C)=C2C1` (stereo not drawn) [M1] the “Detected in rat feces (F)” value [2] was “√” and the “Detected in rat urine (U)” value [2] was “√”.

For `C=C(C(=O)N(C)C)C1CCC(C)C2CC(=O)C(C)=C2C1` (stereo not drawn) [M4], the “Detected in rat feces (F)” value [2] was “√” and the “Detected in rat urine (U)” value [2] was “×”.

With `C=C(C(=O)NCc1cc(-c2ccc(F)cc2)no1)C1CCC(C)C2CC(=O)C(C)=C2C1` (stereo not drawn) [CAM106] the Signs of toxicity (rats; 180 mg/kg oral and 18 mg/kg intravenous for 3 days) was “no signs of toxicity were observed”, the “Adverse reactions or acute toxicity” value (rats; oral 180 mg/kg or intravenous 18 mg/kg) was “No adverse reactions or acute toxicity were observed” and the “IC50 against influenza virus B relative to rupestonic acid” value (influenza virus B [3]) was “about 35 fold”. The IC50 (H3N2) was 1090 nM, the IC50 (influenza virus B [1]; read-out: IC50 for B virus) was 3250 nM and the “Detected in rat feces (F)” value ([4]; rat feces 0–48 h after administration of CAM106) was “√”. For the same molecule, the “Detected in rat urine (U)” value ([4]; rat urine 0–48 h after administration of CAM106) was “√”, the Toxic response (Kun Ming mice) was “no toxic response” and the “AUC0–inf” value [5, 7] was 1287.93 ± 549.25 h·(ng/mL). The “AUC0–t” value [5, 7] was 1255.32 ± 544.72 h·(ng/mL), the “AUC0–inf” value [5, 8] was 294.19 ± 221.69 h·(ng/mL) and the “AUC0–t” value [5, 8] was 200.94 ± 87.45 h·(ng/mL). The Vd [5, 8] was 4,605,807.05 ± 2,044,928.13 mL/kg, the clearance [5, 9] was 277 mL/min/kg and the half-life [5, 9] was 1.34 ± 0.64 h. It also gave an MRT inf [5, 9] of 0.79 ± 0.23 h, an MRT last [5, 9] of 0.63 ± 0.17 h and a Vd ([5]; male, Sprague Dawley, rat, plasma, IV 18.0 mg/kg, n = 6, mean ± SD, read-out: Vd) of 27.4 L/kg. For the same molecule, the Cmax [5, 10] was 61 ± 30.8 ng/mL, the Tmax [5, 10] was 1.21 ± 0.51 h and the half-life [5, 10] was 4.56 ± 2.31 h. It also gave an MRT inf [5, 10] of 6.69 ± 3.57 h, an MRT last [5, 10] of 3.42 ± 0.73 h and a bioavailability ([5]; male, Sprague Dawley, rat, plasma, oral, 180 mg/kg, PO 180.0 mg/kg versus IV 18.0 mg/kg, read-out: F (%), absolute (oral) bioavailability) of ~1.6%. For the same molecule, the Cmax ([5]; male, Sprague-Dawley, rat, plasma, IV 18.0 mg/kg, n = 6, mean ± SD) was 2310 ± 1000 ng/mL, the Solubility in water (Water solubility) was “poorly soluble in water; also recorded: weak water solubility” and the “Accuracy, autosampler stability 0 h” value ([6]; 10.64 ng/mL) was 95.02. The “Accuracy, autosampler stability 4 h” value ([6]; 10.64 ng/mL) was 93.52, the “Accuracy, autosampler stability 8 h” value ([6]; 10.64 ng/mL) was 91.35 and the “Accuracy, autosampler stability 12 h” value ([6]; 10.64 ng/mL) was 100.38. For the same molecule, the “Accuracy, room temperature” value ([6]; 10.64 ng/mL) was 96.71, the “Accuracy, stock solution 15 days” value ([6]; 10.64 ng/mL) was 91.26 and the “Accuracy, thaw” value ([6]; 10.64 ng/mL) was 97.21. The “Accuracy, long-term stability 1 day” value ([6]; 10.64 ng/mL) was 97.93, the “Accuracy, long-term stability 7 days” value ([6]; 10.64 ng/mL) was 103.20 and the “Accuracy, autosampler stability 0 h” value ([6]; 106.38 ng/mL) was 106.05. For the same molecule, the “Accuracy, autosampler stability 4 h” value ([6]; 106.38 ng/mL) was 101.96, the “Accuracy, autosampler stability 8 h” value ([6]; 106.38 ng/mL) was 101.46 and the “Accuracy, autosampler stability 12 h” value ([6]; 106.38 ng/mL) was 98.88. For the same molecule, the “Accuracy, room temperature” value ([6]; 106.38 ng/mL) was 101.12, the “Accuracy, stock solution 15 days” value ([6]; 106.38 ng/mL) was 108.39 and the “Accuracy, thaw” value ([6]; 106.38 ng/mL) was 106.13. For the same molecule, the “Accuracy, long-term stability 1 day” value ([6]; 106.38 ng/mL) was 104.02, the “Accuracy, long-term stability 7 days” value ([6]; 106.38 ng/mL) was 94.03 and the “Accuracy, autosampler stability 0 h” value ([6]; 638.30 ng/mL) was 100.00. For the same molecule, the “Accuracy, autosampler stability 4 h” value ([6]; 638.30 ng/mL) was 102.58, the “Accuracy, autosampler stability 8 h” value ([6]; 638.30 ng/mL) was 97.09 and the “Accuracy, autosampler stability 12 h” value ([6]; 638.30 ng/mL) was 96.48. The “Accuracy, room temperature” value ([6]; 638.30 ng/mL) was 102.21, the “Accuracy, stock solution 15 days” value ([6]; 638.30 ng/mL) was 95.27 and the “Accuracy, thaw” value ([6]; 638.30 ng/mL) was 100.09. The “Accuracy, long-term stability 1 day” value ([6]; 638.30 ng/mL) was 103.73, the “Accuracy, long-term stability 7 days” value ([6]; 638.30 ng/mL) was 90.36 and the IC50 (H1N1) was 970 nM.

For `C=C(C(=O)NCc1cc(-c2ccc(F)cc2)no1)C1CC[C@H](C(=O)O)C2CC(=O)C(C)=C2C1` (stereo partly drawn) [M5], the “Detected in rat feces (F)” value [2] was “×” and the “Detected in rat urine (U)” value [2] was “√”.
